Results from BindingDB's records for doi:10.1016/s0960-894x(98)00197-8 (Pharmacia & Upjohn, 1999).
pKi: −log10 of the molar value.

Molecular target: Human immunodeficiency virus type 1 protease (Human immunodeficiency virus 1, UniProt Q72874)
Test: Compound was evaluated for in vitro inhibition of human immunodeficiency virus type 1 (HIV-1) Protease

| pKi | SMILES |
| --- | --- |
| 10.00 | CCC(c1cccc(NS(=O)(=O)c2ccc(C#N)cn2)c1)C1C(=O)CC(CC)(c2cccc(NS(=O)(=O)c3ccc(C#N)cn3)c2)OC1=O (configuration not stated) [2N-[3-(1-{2-[3-(5-cyano-2-pyridylsulfonamido)phenyl]-2-ethyl-4-hydroxy-6-oxo-3,6-dihydro-2H-5-pyranyl}propyl)phenyl]-5-cyano-2-pyridinesulfonamide] |
| 10.00 | CCCC1(CCc2ccccc2)CC(=O)C(C(CC)c2cccc(NS(=O)(=O)c3ccc(C#N)cn3)c2)C(=O)O1 (configuration not stated) [5-cyano-N-(3-{1-[4-hydroxy-2-oxo-6-(2-phenylethyl)-6-propyl-5,6-dihydro-2H-pyran-3-yl]propyl}phenyl)pyridine-2-sulfonamide] |
